Results: US5559145A, “1,2,4-trioxane derivatives” (priority 1995, dated 1996)

Legend:
Onchocerca gutturosa [1] = assay: Activity against Onchocerca gutturosa assessed by motility (parasites, medium, serum, cells and test drugs); assay type: cell-based; design: reduction of motility: concentration or dose not given beside the values; details: with cells
Experimental: Testing in vitro against Onchocerca gutturosa is a valid model for activity against Onchocerca volvulus.
(§1) Testing of test drugs (Compounds 1, 2, 3, 4, 5, 7, 8, 9, 11, and 12 of Table 1 ) against the parasitic worms Onchocerca gutturosa was carried out in accordance with the method described in J Helminth (1987) 60, 271, firstly using parasites, medium, serum, cells and test drugs.

Onchocerca gutturosa [2] = assay: Activity against Onchocerca gutturosa, tetrazolium colorimetric test (parasites, medium, cells and test drug); assay type: cell-based; details: with cells; for inhibition at 50 µM: Onchocerca gutturosa, 5×10^-5 M, read-out: inhibition of formazan formation
Experimental: (§2) A suitable colorimetric assay uses formation of formazan, a blue dye, from tetrazolium cation generated by 3-[…] bromide (J Helminth (1987) 60, 271). Firstly, Compounds 1, 2, 4, 5, 7, 8, 9, 11 and 12, along with artemisinin and arteether were tested using parasites, medium, cells and test drug.

T. gondii [3] = assay: Activity against T. gondii within macrophages, assessed by light microscopy; assay type: cell-based, Toxoplasma gondii (in murine peritoneal macrophages); design: % infected cells / Mean T. gondii per infected vacuole / T. gondii per 100 cells: dose or concentration left out as unconfirmed; details: for Mean T. gondii per infected vacuole: macrophages (no drug: 4.3); for % infected cells: macrophages (no drug: 42); for T. gondii per 100 cells: macrophages (no drug: 191); for activity compared with pyrimethamine and pyrimethamine + sulfadiazine / inhibition of the intracellular growth of toxoplasma: in words, at respective IC90 values
Experimental: Unelicited murine peritoneal macrophages obtained by washing the peritoneal cavities of Swiss-Webster mice with 3 ml of Hanks' Balanced Salt Solution (HBSS) (4° C.) containing 5 U ml of heparin were purified by centrifugation in Ficoll-Paque (Pharmacia) 500×g for 15 min, pooled and suspended in medium 199 (M199) containing 10% heat-inactivated (56° C. for 60 min) fetal calf serum (FCS). An amount of […] was seeded into each well of 96-well dishes (Costar) and allowed to adhere during 2-3 h at 37° C. in an 5% CO2 -95% air atmosphere. The nonadherent cells were removed by washing twice with prewarmed HBSS and challenged with 3 ×10 tachyzoites of the RG strain of […] in M199-3% FCS for 1 h. After washing twice with HBSS, the infected monolayers received the test drugs (Compounds 1 to 10 of Table 1) at various concentrations in M199-10% FCS. The monolayers were then pulsed with […] of [3H]uracil (Amersham) during a period of 18 h. The acid-precipitable radioactivity on each well was counted by using a filtration procedure and the IC90 was calculated by probit analysis.
2×10^6 of the macrophage cells were seeded into each chamber of four-chamber glass slides (Lab-Tek). After removing nonadherent cells with HBSS, the monolayers were infected with 2×10^6 T. gondii for 1 h followed by addition of the drugs with the media over 18 h. Monolayers were fixed with 0.4% 9-aminoacridine (50% ethanol-water vol/vol), Giemsa-stained, and assessed by light microscopy. The results are shown in the following Table 6, including results of control compounds: […]

T. gondii [4] = assay: Activity against T. gondii within HeLa cells, assessed by light microscopy; assay type: cell-based, Toxoplasma gondii (in HeLa (ATCC CCL2) cells); details: for Mean T. gondii per infected vacuole: HeLa (no drug: 8.1); for % infected cells: HeLa (no drug: 49); for T. gondii per 100 cells: HeLa (no drug: 620); for block of parasite growth: in words, HeLa cells
Experimental: Confluent epithelium-like HeLa (ATCC CCL2) cell monolayers growing on 6-well plastic multidish (9.6 cm^2, Nunc, Roskilde, Denmark) were used. After washing with HBSS, the monolayers were infected with 3×10^6 ml^-1 T. gondii in M199-3% FCS (total amount per well, 3 ml) for 1 h, washed twice with HBSS, and the drugs were added with M199-10% FCS over 22 h. Monolayers were then fixed, Giemsa-stained and-assessed by light microscopy.

Onchocerca gutturosa [5] = assay: Activity against Onchocerca gutturosa assessed by motility (parasites, medium and drug); assay type: cell-based; details: for effect on worm motility: in words; for effect on worm motility / motility: without cells
Experimental: as §1
Secondly, test drugs (Compounds 2, 3, 4, 7,. 8, 9 and 12 of Table 1) were tested using parasites, medium and drug. […] Under these conditions, commercial anti-helminthic drugs and artemisinin also cut motility by some 30-40%.

Onchocerca gutturosa [6] = assay: Activity against Onchocerca gutturosa, tetrazolium colorimetric test (parasites, medium and test drugs); assay type: cell-based; details: without cells
Experimental: as §2
Secondly, Compounds 2, 3, 4, 7, 8, 9, and 12, artemisinin and arteether were tested using parasites, medium and test drugs.

[7] = tested on: in vitro mitogenic assay; mixed lymphocyte reaction; assay: Immunomodulatory activity (in vitro mitogenic assay; mixed lymphocyte reaction); assay type: cell-based; details: in words
Experimental: Several of the compounds mentioned in Examples 1 to 17 were also tested for immunomodulatory activity (in vitro mitogenic assay; mixed lymphocyte reaction).

[8] = tested on: chloroquine-resistant strains of P. falciparum; details: in words; background, Science 228, 1049 (1985); cited from earlier work
[9] = in words, 7 days, after an induction period
[10] = in words, two to three days exposure

Cc1ccc(C2=C[C@@]3(c4ccc(C)cc4)OOC4(CCCCC4)O[C@H]3C2=O)cc1 (relative stereo) [Compound 11 (Table 4)]
reduction of motility (Onchocerca gutturosa [1]; after 7 days): 100% | effect on worm motility (Onchocerca gutturosa [1]; in words, one day exposure): significantly effective | inhibition at 50 µM (Onchocerca gutturosa [2]): > 90%

C1=C(c2ccccc2)C[C@@]2(c3ccccc3)OOC3(CCCC3)O[C@@H]12 (relative stereo) [Compound 1 (Table 4)]
Mean T. gondii per infected vacuole (T. gondii [3]; 6.8, 18 h): 1.6 | % infected cells (T. gondii [3]; 6.8, 18 h): 19% | T. gondii per 100 cells (T. gondii [3]; 6.8, 18 h): 38 | activity compared with pyrimethamine and pyrimethamine + sulfadiazine (T. gondii [3]): comparable to that of pyrimethamine, and pyrimethamine in combination with sulfadiazine | inhibition of the intracellular growth of toxoplasma (T. gondii [3]): confirmed the inhibition of the intracellular growth of toxoplasma | Mean T. gondii per infected vacuole (T. gondii [4]; 6.8 mg ml^-1, 22 h): 1.8 | % infected cells (T. gondii [4]; 6.8 mg ml^-1, 22 h): 23% | T. gondii per 100 cells (T. gondii [4]; 6.8 mg ml^-1, 22 h): 46 | block of parasite growth (T. gondii [4]): able to block parasite growth | reduction of motility (Onchocerca gutturosa [1]; after 7 days): 100% | effect on worm motility (Onchocerca gutturosa [1]; [9]): completely stopped morality

CCc1nc(N)nc(N)c1-c1ccc(Cl)cc1 [P, pyrimethamine, reference compound]
Mean T. gondii per infected vacuole (T. gondii [3]; 1, 18 h): 1.2 | % infected cells (T. gondii [3]; 1, 18 h): 14% | T. gondii per 100 cells (T. gondii [3]; 1, 18 h): 33

O=C1CCC2(CC1)OO[C@]1(c3ccccc3)CC(c3ccccc3)=C[C@@H]1O2 (relative stereo) [Compound 4 (Table 4)]
reduction of motility (Onchocerca gutturosa [1]; after 7 days): 100% | effect on worm motility (Onchocerca gutturosa [1]; in words, one day exposure): significantly effective | effect on worm motility (Onchocerca gutturosa [5]; after one day): immediate response

O[C@@H]1C(c2ccccc2)=C[C@@]2(c3ccccc3)OOC3(CCOCC3)O[C@@H]12 (relative stereo) [Compound 7 (Table 4)]
reduction of motility (Onchocerca gutturosa [1]; after 7 days): 100% | effect on worm motility (Onchocerca gutturosa [1]; [9]): completely stopped morality | motility (Onchocerca gutturosa [5]; after 2-3 days): less than 1

CCO[C@H]1O[C@@H]2O[C@@]3(C)CC[C@H]4[C@H](C)CC[C@@H]([C@H]1C)[C@@]24OO3 [arteether, reference compound]
reduction of motility (Onchocerca gutturosa [1]; after a day, 1440 min): 30% | motility (Onchocerca gutturosa [5]; after 4 days): 4 | motility (Onchocerca gutturosa [5]; after 7 days): 2 | inhibition of formazan formation (Onchocerca gutturosa [2]): about 40% | inhibition of formazan formation (Onchocerca gutturosa [6]; in words): ineffective

CC1(C)OO[C@]2(c3ccccc3)CCC(c3ccccc3)=C[C@@H]2O1 (relative stereo) [Compound 12 (Table 4)]
reduction of motility (Onchocerca gutturosa [1]; after 7 days): 100% | effect on worm motility (Onchocerca gutturosa [1]; [10]): markedly inhibitory | motility (Onchocerca gutturosa [5]; after 2-3 days): less than 1 | inhibition at 50 µM (Onchocerca gutturosa [2]): > 90%

C1=C(c2ccccc2)C[C@@]2(c3ccccc3)OOC3(CCOCC3)O[C@@H]12 (relative stereo) [Compound 3 (Table 4)]
effectiveness in the motility test (Onchocerca gutturosa [1]; in words, overall): not so effective | effect on worm motility (Onchocerca gutturosa [5]; after 2-3 days): performed poorly

O=C1C(c2ccccc2)=C[C@@]2(c3ccccc3)OOC3(CCCCC3)O[C@@H]12 (relative stereo) [Compound 6 (Table 4)]
Mean T. gondii per infected vacuole (T. gondii [3]; 54, 18 h): 1.9 | % infected cells (T. gondii [3]; 54, 18 h): 20% | T. gondii per 100 cells (T. gondii [3]; 54, 18 h): 43 | activity compared with pyrimethamine and pyrimethamine + sulfadiazine (T. gondii [3]): comparable to that of pyrimethamine, and pyrimethamine in combination with sulfadiazine | inhibition of the intracellular growth of toxoplasma (T. gondii [3]): confirmed the inhibition of the intracellular growth of toxoplasma

CC1(C)OO[C@@]2(c3ccc(Cl)cc3)CC(c3ccc(Cl)cc3)=C[C@H]2O1 (relative stereo) [Compound 6]
immunomodulatory activity [7]: most important activity

CC1(C)OO[C@]2(c3ccccc3)CC(c3ccccc3)=C[C@@H]2O1 (relative stereo) [Compound 5 (Table 4)]
reduction of motility (Onchocerca gutturosa [1]; after 7 days): 100% | effect on worm motility (Onchocerca gutturosa [1]; in words, one day exposure): significantly effective

O[C@@H]1C(c2ccccc2)=C[C@@]2(c3ccccc3)OOC3(CCCC3)O[C@@H]12 (relative stereo) [Compound 8 (Table 4)]
reduction of motility (Onchocerca gutturosa [1]; after 7 days): 100% | effect on worm motility (Onchocerca gutturosa [1]; [10]): markedly inhibitory | effect on worm motility (Onchocerca gutturosa [5]; after one day): immediate response

C1=C(c2ccccc2)C[C@]2(c3ccccc3)OOC3(CCOCC3)O[C@H]12 (relative stereo) [Compound 12]
immunomodulatory activity [7]: most important activity

O[C@@H]1C(c2ccccc2)=C[C@@]2(c3ccccc3)OOC3(CCCCC3)O[C@@H]12 (relative stereo) [Compound 9 (Table 4)]
reduction of motility (Onchocerca gutturosa [1]; after 7 days): 100% | effect on worm motility (Onchocerca gutturosa [1]; in words, one day exposure): immediately immobilized worms in less than a day | effect on worm motility (Onchocerca gutturosa [1]; [10]): markedly inhibitory | effect on worm motility (Onchocerca gutturosa [5]; after one day): immediate response | inhibition at 50 µM (Onchocerca gutturosa [2]): > 90%

C1=C(c2ccccc2)C[C@@]2(c3ccccc3)OOC3(CCSCC3)O[C@@H]12 (relative stereo) [Compound 2 (Table 4)]
Mean T. gondii per infected vacuole (T. gondii [3]; 5.3, 18 h): 1.2 | % infected cells (T. gondii [3]; 5.3, 18 h): 14% | T. gondii per 100 cells (T. gondii [3]; 5.3, 18 h): 35 | activity compared with pyrimethamine and pyrimethamine + sulfadiazine (T. gondii [3]): comparable to that of pyrimethamine, and pyrimethamine in combination with sulfadiazine | inhibition of the intracellular growth of toxoplasma (T. gondii [3]): confirmed the inhibition of the intracellular growth of toxoplasma | Mean T. gondii per infected vacuole (T. gondii [4]; 5.3 mg ml^-1, 22 h): 1.3 | % infected cells (T. gondii [4]; 5.3 mg ml^-1, 22 h): 23% | T. gondii per 100 cells (T. gondii [4]; 5.3 mg ml^-1, 22 h): 38 | block of parasite growth (T. gondii [4]): able to block parasite growth | reduction of motility (Onchocerca gutturosa [1]; after 7 days): 100% | effect on worm motility (Onchocerca gutturosa [1]; [10]): markedly inhibitory | motility (Onchocerca gutturosa [5]; after 2-3 days): less than 1

C[C@@H]1CC[C@H]2[C@@H](C)C(=O)O[C@@H]3O[C@@]4(C)CC[C@@H]1[C@]32OO4 [artemisinin, reference compound]
effect on worm motility (Onchocerca gutturosa [1]; in words, one day exposure): ineffective | reduction of motility (Onchocerca gutturosa [5]; without cells ("under these conditions")): 30-40% | inhibition of formazan formation (Onchocerca gutturosa [2]; in words): ineffective | inhibition of formazan formation (Onchocerca gutturosa [6]): about 25% | activity of Qinghaosu against chloroquine-resistant strains [8]: remarkably active
